Measurements published in PMC4664181 (ChemMedChem, 2009).
Entries after “also recorded” stand apart in the source; their conditions may differ. Read-outs that look alike come from different tables or passages of the source.

Columns and labels:
[1] = system: NR2A (Y730 to phenylalanine); conditions: mutant vs wild type NR2A; cited from earlier work
NR2D(Y732F) = conditions: mutant vs wild type NR2D; cited from earlier work
NR1/NR2C [2] = molecular target: T1, NR1/NR2C (Rattus norvegicus, UniProt Q00961); assay type: cell-based; conditions: NR1/NR2C; for I/Imax (relative maximal response): relative to maximal response to glutamate (1.0)
NR1/NR2C [3] = molecular target: NR1/NR2C (Rattus norvegicus, UniProt P35439+Q00961); assay type: cell-based
NR1/NR2A [4] = molecular target: T2, NR1/NR2A (Rattus norvegicus, UniProt Q00959); assay type: cell-based; conditions: for EC50: NR = no response up to 1000 μM
NR1/NR2B [5] = molecular target: T3, NR1/NR2B (Rattus norvegicus, UniProt Q00960); assay type: cell-based; conditions: NR1/NR2B; for EC50: NR = no response up to 1000 μM
NR1/NR2B [6] = molecular target: NR1/NR2B (Rattus norvegicus, UniProt P35439+Q00960); assay type: cell-based
native NMDA receptors [7] = assay: Radioligand binding assay; conditions: rat brain synaptosomes; for [3H]CGP39653 mean pKi ± SEM: three to five experiments; for Ki: read-out: [3H]CGP39653 Ki, mean of three to five experiments
NR1/NR2D [8] = molecular target: T4, NR1/NR2D (Rattus norvegicus, UniProt Q62645); assay type: cell-based; conditions: for Agonist activity (in words) / I/Imax (relative maximal response) / EC50 / pEC50 (mean ± SEM): NR1/NR2D; for I/Imax (relative maximal response): relative to maximal response to glutamate (1.0)
NR1/NR2D [9] = molecular target: NR1/NR2D (Rattus norvegicus, UniProt P35439+Q62645); assay type: cell-based
NR1/NR2D [10] = molecular target: T4, NR1/NR2D; conditions: cited from earlier work
[11] = system: native excitatory amino acid transporters (EAATs); conditions: cited from earlier work
NR1/NR2B [12] = molecular target: T3, NR1/NR2B; conditions: cited from earlier work
NR1/NR2C [13] = molecular target: T1, NR1/NR2C; conditions: cited from earlier work
NR1/NR2A [14] = molecular target: T2, NR1/NR2A; conditions: cited from earlier work
native NMDA receptors [15] = conditions: read-out: [3H]CGP39653 Ki; rat brain synaptosomes; cited from earlier work
[16] = relative to maximal response to glutamate (1.0)

T3 sequence (Q00960 27-1482, other chains not shown): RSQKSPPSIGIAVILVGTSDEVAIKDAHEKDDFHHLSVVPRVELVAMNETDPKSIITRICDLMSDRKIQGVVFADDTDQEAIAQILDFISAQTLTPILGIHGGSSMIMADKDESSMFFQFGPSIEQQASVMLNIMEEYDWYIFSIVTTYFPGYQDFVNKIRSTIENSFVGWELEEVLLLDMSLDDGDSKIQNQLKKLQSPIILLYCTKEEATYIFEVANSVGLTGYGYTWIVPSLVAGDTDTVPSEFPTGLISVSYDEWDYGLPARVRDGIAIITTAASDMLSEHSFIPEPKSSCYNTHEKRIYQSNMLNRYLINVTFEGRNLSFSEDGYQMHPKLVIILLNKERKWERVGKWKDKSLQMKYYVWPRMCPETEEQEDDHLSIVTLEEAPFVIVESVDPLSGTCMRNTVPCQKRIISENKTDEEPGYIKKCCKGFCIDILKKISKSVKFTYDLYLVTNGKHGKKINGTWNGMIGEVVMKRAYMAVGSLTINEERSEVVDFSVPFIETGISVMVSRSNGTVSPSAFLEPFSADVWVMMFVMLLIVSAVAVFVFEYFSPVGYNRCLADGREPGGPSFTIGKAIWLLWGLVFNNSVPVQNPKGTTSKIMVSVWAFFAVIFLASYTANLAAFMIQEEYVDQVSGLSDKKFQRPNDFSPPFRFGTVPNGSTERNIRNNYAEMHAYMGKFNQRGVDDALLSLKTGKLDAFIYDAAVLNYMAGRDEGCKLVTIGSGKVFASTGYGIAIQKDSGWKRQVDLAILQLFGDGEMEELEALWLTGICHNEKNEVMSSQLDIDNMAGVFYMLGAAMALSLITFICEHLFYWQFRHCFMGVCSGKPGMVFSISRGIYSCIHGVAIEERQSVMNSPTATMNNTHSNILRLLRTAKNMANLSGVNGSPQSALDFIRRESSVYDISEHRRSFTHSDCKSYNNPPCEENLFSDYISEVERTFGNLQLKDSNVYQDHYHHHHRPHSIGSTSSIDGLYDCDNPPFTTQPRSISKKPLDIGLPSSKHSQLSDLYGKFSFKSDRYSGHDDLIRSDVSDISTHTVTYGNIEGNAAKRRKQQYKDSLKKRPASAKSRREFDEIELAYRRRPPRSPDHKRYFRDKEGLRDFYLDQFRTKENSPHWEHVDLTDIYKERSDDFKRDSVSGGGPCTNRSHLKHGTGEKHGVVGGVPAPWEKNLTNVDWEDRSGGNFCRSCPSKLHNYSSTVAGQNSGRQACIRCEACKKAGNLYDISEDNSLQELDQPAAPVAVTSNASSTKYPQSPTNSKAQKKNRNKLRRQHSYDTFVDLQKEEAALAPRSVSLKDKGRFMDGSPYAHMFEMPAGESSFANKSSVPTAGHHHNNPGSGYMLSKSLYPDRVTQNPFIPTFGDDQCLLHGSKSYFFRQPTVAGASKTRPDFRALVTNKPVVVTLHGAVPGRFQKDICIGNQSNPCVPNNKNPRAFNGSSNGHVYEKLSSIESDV
T4 sequence (Q62645 28-1323, other chains not shown): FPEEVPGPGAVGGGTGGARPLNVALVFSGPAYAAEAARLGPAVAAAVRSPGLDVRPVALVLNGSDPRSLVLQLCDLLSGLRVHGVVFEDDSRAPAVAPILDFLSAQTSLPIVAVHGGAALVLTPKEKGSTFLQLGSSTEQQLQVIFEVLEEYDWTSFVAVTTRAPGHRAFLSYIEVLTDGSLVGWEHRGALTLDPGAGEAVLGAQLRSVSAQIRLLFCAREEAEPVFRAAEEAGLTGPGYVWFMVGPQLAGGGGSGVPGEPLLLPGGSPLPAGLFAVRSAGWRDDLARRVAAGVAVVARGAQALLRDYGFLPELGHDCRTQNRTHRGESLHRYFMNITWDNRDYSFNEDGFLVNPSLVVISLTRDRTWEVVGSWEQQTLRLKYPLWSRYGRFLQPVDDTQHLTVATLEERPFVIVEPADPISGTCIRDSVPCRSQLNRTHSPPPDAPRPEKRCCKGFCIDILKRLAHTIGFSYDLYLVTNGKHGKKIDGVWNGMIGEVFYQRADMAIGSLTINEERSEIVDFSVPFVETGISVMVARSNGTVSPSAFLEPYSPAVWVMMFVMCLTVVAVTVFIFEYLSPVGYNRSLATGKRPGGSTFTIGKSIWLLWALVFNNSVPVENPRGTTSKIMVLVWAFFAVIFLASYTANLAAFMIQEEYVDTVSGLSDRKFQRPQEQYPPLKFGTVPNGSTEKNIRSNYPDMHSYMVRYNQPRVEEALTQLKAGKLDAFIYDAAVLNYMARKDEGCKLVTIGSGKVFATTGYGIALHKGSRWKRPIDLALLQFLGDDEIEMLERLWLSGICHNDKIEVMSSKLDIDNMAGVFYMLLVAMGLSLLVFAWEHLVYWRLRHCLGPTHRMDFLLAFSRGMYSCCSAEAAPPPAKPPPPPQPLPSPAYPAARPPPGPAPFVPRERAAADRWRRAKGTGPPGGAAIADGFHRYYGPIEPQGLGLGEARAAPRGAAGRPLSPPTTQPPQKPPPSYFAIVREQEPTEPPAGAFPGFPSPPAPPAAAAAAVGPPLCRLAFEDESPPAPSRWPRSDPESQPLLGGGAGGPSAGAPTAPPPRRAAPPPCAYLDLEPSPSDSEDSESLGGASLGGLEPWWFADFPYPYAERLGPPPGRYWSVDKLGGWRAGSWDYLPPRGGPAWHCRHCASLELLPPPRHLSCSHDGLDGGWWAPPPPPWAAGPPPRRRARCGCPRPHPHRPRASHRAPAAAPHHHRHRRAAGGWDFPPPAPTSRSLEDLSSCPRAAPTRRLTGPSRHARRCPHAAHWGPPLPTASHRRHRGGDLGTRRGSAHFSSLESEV
T2 sequence (Q00959 23-1464, other chains not shown): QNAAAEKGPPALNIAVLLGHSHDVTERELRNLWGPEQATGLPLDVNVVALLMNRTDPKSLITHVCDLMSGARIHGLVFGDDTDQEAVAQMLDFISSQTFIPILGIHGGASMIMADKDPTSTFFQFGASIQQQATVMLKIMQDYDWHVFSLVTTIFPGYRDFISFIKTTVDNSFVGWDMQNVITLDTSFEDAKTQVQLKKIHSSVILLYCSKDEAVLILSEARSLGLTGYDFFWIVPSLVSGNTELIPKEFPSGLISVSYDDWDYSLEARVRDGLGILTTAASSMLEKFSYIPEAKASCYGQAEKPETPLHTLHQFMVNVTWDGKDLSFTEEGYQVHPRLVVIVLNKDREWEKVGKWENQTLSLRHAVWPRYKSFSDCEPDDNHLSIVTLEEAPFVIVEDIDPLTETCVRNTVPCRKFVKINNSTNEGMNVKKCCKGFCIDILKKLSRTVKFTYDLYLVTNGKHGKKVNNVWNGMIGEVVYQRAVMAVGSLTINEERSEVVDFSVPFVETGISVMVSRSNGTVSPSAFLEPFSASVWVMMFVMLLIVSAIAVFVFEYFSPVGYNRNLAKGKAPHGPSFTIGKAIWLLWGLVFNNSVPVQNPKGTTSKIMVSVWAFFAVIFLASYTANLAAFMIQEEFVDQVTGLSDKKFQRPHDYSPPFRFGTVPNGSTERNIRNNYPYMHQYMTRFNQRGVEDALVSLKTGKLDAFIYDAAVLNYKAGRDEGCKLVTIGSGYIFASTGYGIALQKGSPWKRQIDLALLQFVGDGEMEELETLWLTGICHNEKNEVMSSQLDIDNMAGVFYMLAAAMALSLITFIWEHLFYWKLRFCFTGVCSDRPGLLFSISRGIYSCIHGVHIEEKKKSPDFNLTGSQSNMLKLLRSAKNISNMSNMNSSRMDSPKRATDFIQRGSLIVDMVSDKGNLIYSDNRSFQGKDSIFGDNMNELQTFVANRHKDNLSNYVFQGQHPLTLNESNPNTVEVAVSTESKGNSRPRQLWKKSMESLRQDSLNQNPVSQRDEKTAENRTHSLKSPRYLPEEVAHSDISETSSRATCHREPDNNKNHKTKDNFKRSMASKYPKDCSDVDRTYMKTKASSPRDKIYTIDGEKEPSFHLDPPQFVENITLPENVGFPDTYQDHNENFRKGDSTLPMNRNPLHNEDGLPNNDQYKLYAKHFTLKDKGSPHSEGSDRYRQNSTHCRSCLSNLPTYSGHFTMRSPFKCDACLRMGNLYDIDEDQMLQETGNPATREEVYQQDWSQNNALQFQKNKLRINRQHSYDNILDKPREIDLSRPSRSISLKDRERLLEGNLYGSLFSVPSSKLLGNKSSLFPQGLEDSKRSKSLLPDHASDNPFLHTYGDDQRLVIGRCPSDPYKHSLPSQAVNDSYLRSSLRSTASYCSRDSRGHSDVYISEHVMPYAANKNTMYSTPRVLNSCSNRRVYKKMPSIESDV
NR1/NR2D (Rattus norvegicus, UniProt P35439+Q62645), sequence (Q62645 28-1323, other chains not shown): as the sequence (Q62645 28-1323, other chains not shown) above

Structure (SMILES): N[C@@H](CCC(=O)O)C(=O)O [glutamate, (S)-glutamate]
- Decrease of potency by mutation Y730 to phenylalanine in NR2A [1]: 45 fold
- Change of potency on NR2D(Y732F) (in words) (NR2D(Y732F)): slightly increased

Structure (SMILES): O=C(O)[C@@H]1CN[C@H]1C(=O)O [D-trans-ADC, (2R,3R)-Azetidine-2,3-dicarboxylic acid]
- Agonist activity (in words) (NR1/NR2C [2]): activated
- EC50 (NR1/NR2C [3]): > 1000 µM
- EC50 (NR1/NR2A [4]): > 1000 µM
- Agonist activity (in words) (NR1/NR2B [5]): activated
- EC50 (NR1/NR2B [6]): > 1000 µM
- Affinity for glutamate binding site of native NMDA receptors (in words) (native NMDA receptors [7]): essentially without affinity
- [3H]CGP39653 mean pKi ± SEM (native NMDA receptors [7]): 4.05 ± 0.03
- Ki (native NMDA receptors [7]): 90 µM
- Agonist activity (in words) (NR1/NR2D [8]): activated
- I/Imax (relative maximal response) (NR1/NR2D [8]): 0.69 ± 0.01
- EC50 (NR1/NR2D [9]): 660 µM

Structure (SMILES): C[C@H](C[C@H](N)C(=O)O)C(=O)O [SYM2081, (2S,4R)-4-methylglutamate]
- Higher potency at NR1/NR2D over NR1/NR2A (NR1/NR2D [10]; NR1/NR2D vs NR1/NR2A): 46 fold

Structure (SMILES): O=C(O)[C@H]1NC[C@H]1C(=O)O [L-cis-ADC]
- Agonist activity (in words) (NR1/NR2C [2]): only at high concentrations (1000 μM) some activation
- EC50 (NR1/NR2C [2]): > 1000 µM
- Agonist activity (in words) (NR1/NR2A [4]): unable to activate
- EC50 (NR1/NR2A [4]): > 1000 µM
- Agonist activity (in words) (NR1/NR2B [5]): unable to activate
- EC50 (NR1/NR2B [5]): > 1000 µM
- Affinity for glutamate binding site of native NMDA receptors (in words) (native NMDA receptors [7]): essentially without affinity
- Ki (native NMDA receptors [7]): > 100 µM
- Agonist activity (in words) (NR1/NR2D [8]): only at high concentrations (1000 μM) some activation
- EC50 (NR1/NR2D [8]): > 1000 µM

Structure (SMILES): O=C(O)[C@H]1CN[C@H]1C(=O)O [D-cis-ADC, (2R,3S)-Azetidine-2,3-dicarboxylic acid]
- Agonist activity (in words) (NR1/NR2C [2]): activated; also recorded: partial agonist
- EC50 (NR1/NR2C [2]): 720 µM
- pEC50 (mean ± SEM) (NR1/NR2C [2]): 3.15±0.06
- I/Imax (relative maximal response) (NR1/NR2C [2]): 0.47 ± 0.03
- EC50 (NR1/NR2A [4]): > 1000 µM
- Agonist activity (in words) (NR1/NR2B [5]): activated
- EC50 (NR1/NR2B [5]): > 3000 µM
- [3H]CGP39653 mean pKi ± SEM (native NMDA receptors [7]): 4.74 ± 0.13
- Ki (native NMDA receptors [7]): 21 µM
- Agonist activity (in words) (NR1/NR2D [8]): activated; also recorded: partial agonist
- EC50 (NR1/NR2D [8]): 230 µM
- pEC50 (mean ± SEM) (NR1/NR2D [8]): 3.63±0.01
- I/Imax (relative maximal response) (NR1/NR2D [8]): 0.67 ± 0.01

Structure (SMILES): O=C(O)[C@H]1CN[C@@H]1C(=O)O [L-trans-ADC]
- EC50 (NR1/NR2C [2]): 95 µM
- pEC50 (mean ± SEM) (NR1/NR2C [2]): 4.02±0.02
- I/Imax (relative maximal response) (NR1/NR2C [2]): 0.73 ± 0.03
- Agonist activity (in words) (NR1/NR2A [4]): able to (partially) activate
- pEC50 (mean ± SEM) (NR1/NR2A [4]): 3.32±0.03
- EC50 (NR1/NR2A [4]): 470 µM
- I/Imax (relative maximal response) (NR1/NR2A [4]; [16]): 0.38 ± 0.02
- pEC50 (mean ± SEM) (NR1/NR2B [5]): 3.76±0.01
- EC50 (NR1/NR2B [5]): 170 µM
- I/Imax (relative maximal response) (NR1/NR2B [5]; [16]): 0.48 ± 0.01
- Affinity at native EAATs (in words) [11]: affinity in the medium micromolar range
- [3H]CGP39653 mean pKi ± SEM (native NMDA receptors [7]): 5.04 ± 0.10
- Ki (native NMDA receptors [7]): 10 µM
- EC50 (NR1/NR2D [8]): 50 µM
- pEC50 (mean ± SEM) (NR1/NR2D [8]): 4.30±0.02
- Preference (agonist potency) for NR1/NR2D over NR1/NR2A (NR1/NR2D [8]; NR1/NR2D vs NR1/NR2A): 9.4 fold
- Preference (agonist potency) for NR1/NR2D over NR1/NR2B (NR1/NR2D [8]; NR1/NR2D vs NR1/NR2B): 3.4 fold
- Preference (agonist potency) for NR1/NR2D over NR1/NR2C (NR1/NR2D [8]; NR1/NR2D vs NR1/NR2C): 1.9 fold
- I/Imax (relative maximal response) (NR1/NR2D [8]): 0.80 ± 0.01

Structure (SMILES): CN[C@H](CC(=O)O)C(=O)O [NMDA, N-methyl-D-aspartic acid]
- EC50 (NR1/NR2B [12]): 22 µM
- pEC50 (mean ± SEM) (NR1/NR2B [12]): 4.66±0.03
- I/Imax (relative maximal response) (NR1/NR2B [12]; relative to glutamate (1.0)): 0.77 ± 0.01
- EC50 (NR1/NR2C [13]): 23 µM
- pEC50 (mean ± SEM) (NR1/NR2C [13]): 4.63±0.02
- I/Imax (relative maximal response) (NR1/NR2C [13]; relative to glutamate (1.0)): 0.73 ± 0.02
- EC50 (NR1/NR2A [14]): 75 µM
- pEC50 (mean ± SEM) (NR1/NR2A [14]): 4.13±0.07
- I/Imax (relative maximal response) (NR1/NR2A [14]; relative to glutamate (1.0)): 0.90 ± 0.04
- EC50 (NR1/NR2D [10]; NR1/NR2D): 8.3 µM
- pEC50 (mean ± SEM) (NR1/NR2D [10]; NR1/NR2D): 5.08±0.04
- I/Imax (relative maximal response) (NR1/NR2D [10]; NR1/NR2D, relative to glutamate (1.0)): 0.80 ± 0.02
- Ki (native NMDA receptors [15]): 6.2 µM
